Test results as given in PubChem BioAssay AID488890 (Southern Research Specialized Biocontainment Screening …, 2010).
Inconclusive results are not listed. The source made the active and inactive calls. No rule for the calls is given here.

test system: Mycobacterium tuberculosis non-replicating, growth inhibition; experiment: growth inhibition of non-replicating M. tuberculosis (AID 488890)

SMILES	IC50
C#CCSc1nnc(-c2ccc(C)cc2)o1	0.82 µM
Cc1ccc(C(=O)OCC(=O)N2CCCCCC2)c(O)c1	8.95 µM
CCCc1cc(NCCCn2ccnc2)n2nc(C)c(-c3ccccc3)c2n1	19.5 µM (inactive)
O=C(c1ccc(-c2ccc([N+](=O)[O-])cc2)o1)N1CCCCCCC1	11.6 µM (inactive)
CC1(C)CC(=O)C(C2NCCc3ccccc32)=C(O)C1 (configuration not stated)	30.8 µM (inactive)
O=C(N/N=C/c1cc([N+](=O)[O-])ccc1O)C1CCCCC1	1.97 µM
Cc1ccc(C(=O)N/N=C/C=C/c2ccccc2)cc1	3.77 µM
Cc1ccc2nc(CCc3nc4ccc(C)cc4[nH]3)[nH]c2c1	17.1 µM (inactive)
COc1cc(/C=N/Nc2cccc3cccnc23)cc(OC)c1O	15.2 µM (inactive)
O=c1c2cc(Br)ccc2nc(-c2cccc(C(F)(F)F)c2)n1O	0.43 µM
O=C(N/N=C/c1cc(Br)cc(Cl)c1O)c1ccc2c(c1)OCO2	< 0.1 µM
O=C(CNc1cccc2ccccc12)N/N=C/c1ccc([N+](=O)[O-])o1	12.1 µM (inactive)
COc1cccc(OC(=O)c2cc3ccccc3oc2=O)c1	14.2 µM (inactive)
Fc1ccc(N2CCN(Cc3nnc(-c4ccccc4)o3)CC2)cc1	18.9 µM (inactive)
N#Cc1ccc(COC(=O)CCc2c[nH]c3ccccc23)cc1	4.68 µM
Cc1ccc(NC(=O)c2ccc([N+](=O)[O-])o2)cc1C	0.28 µM
COc1ccc(Cc2nnc(SCc3ccc([N+](=O)[O-])cc3)o2)cc1	3.16 µM
O=C(CNC(=O)c1ccc(Br)cc1)c1ccc(Br)cc1	18.3 µM (inactive)
CCCn1c(NC(=O)c2ccccc2)nc2ccccc21	8.74 µM

SMILES	IC50
O=C(Nc1cccc(Cl)c1N1CCCC1)c1ccc([N+](=O)[O-])o1	12 µM (inactive)
COC12C(COC(N)=O)C3=C(C(=O)C(C)=C(N)C3=O)N1CC1C2N1C (configuration not stated)	0.12 µM
COc1n[nH]c(C(=O)Nc2cc(F)ccc2C)c1[N+](=O)[O-]	12.4 µM (inactive)
Cc1ccc(NC(=O)CN(C)C2CCCCC2)cc1Br	0.35 µM
O=C(COC(=O)Cc1ccc(Br)cc1)Nc1ccc(N2CCOCC2)cc1	39.1 µM (inactive)
O=C(NCCC1=CCCCC1)c1coc(=O)c(Br)c1	23.7 µM (inactive)
CCN1CCN(Cc2cc(C(C)(C)C)c(O)c(C(C)(C)C)c2)CC1	3.48 µM
O=C(COc1ccccc1)Nc1ccc(Cl)cn1	7.51 µM
CCOC(=O)C1CCCc2c1[nH]c1c(C(N)=O)cccc21 (configuration not stated)	9.99 µM
CCOC(=O)c1cc(-c2csc(COc3ccccc3)n2)on1	< 0.1 µM
CCc1cccc(OCCCn2ccnc2)c1	18.7 µM (inactive)
COc1ccc2nc(/N=C(\N)NC(=O)C(C)(C)C)nc(C)c2c1	17.4 µM (inactive)
CC(C)(C)OC(=O)N/N=C\c1ccc([N+](=O)[O-])s1	13.6 µM (inactive)
Cc1cc(NC(=O)c2sccc2C)n(-c2nc3ccccc3[nH]2)n1	8.81 µM
Clc1ccc(Cl)c(OCCCCNCc2ccccc2)c1	15.1 µM (inactive)
Cc1ccc(NC(=O)COc2ccccc2CNC(C)(C)CC(C)(C)C)cc1	16.5 µM (inactive)
Cc1cc(N2CCC(C)CC2)nc(-n2nc(C)cc2C)n1	0.83 µM
CCOC(=O)C1CCN(C(=O)COc2cc(C)c(Br)c(C)c2)CC1	18.3 µM (inactive)
COc1ccc(C(=O)CCNc2ccc(F)cc2)cc1	5.22 µM

SMILES	IC50
Brc1ccc(CSc2nnc(-c3ccco3)o2)cc1	0.28 µM
CCOC(=O)COc1ccc2c(=O)c(-c3ccccc3)coc2c1	< 0.1 µM
COc1ccc(OCCSc2nnc(Cc3cccc4ccccc34)n2N)cc1	23.6 µM (inactive)
COCc1cc(=O)[nH]c(Nc2nc3ccccc3o2)n1	1.58 µM
Cc1ccc(-n2cc(CNCCn3nc(C)cc3C)c(-c3ccc(F)cc3)n2)cc1	6.05 µM
CCCCCCn1c(=O)c(C(=O)Nc2nnc(C)s2)c(O)c2ccccc21	4.29 µM
O=C1OC(/C(=C\Nc2cc(Cl)ccc2O)[N+](=O)[O-])c2ccccc21 (configuration not stated)	7.86 µM
O=C(OCc1nnc(-c2ccccc2)o1)c1cc([N+](=O)[O-])ccc1Cl	6.28 µM
COc1cccc(NC(=O)c2cnc(SC)nc2)c1	10.4 µM (inactive)
O=C(NC(=S)NNC(=O)[C@H]1C[C@@H]1c1ccccc1)c1cccc(F)c1	6.69 µM
Cc1ccc(C(=O)Nc2nccs2)cc1	19.8 µM (inactive)
CCOC(=O)COc1ccc2c(c1)C(=O)CC(C)(c1cccnc1)O2 (configuration not stated)	10.2 µM (inactive)
NC1=NC[C@H](Cc2ccc(O)cc2)N1CCc1cccc2ccccc12	8.19 µM
CC(C)Cn1c(N)c(C(=O)COC(=O)c2cnc(Cl)c(Cl)c2)c(=O)n(C)c1=O	12 µM (inactive)
Cc1ccccc1OCCC(=O)OCC(=O)NNC(=O)c1cccs1	21.4 µM (inactive)
O=C(NNC(=O)c1ccccc1F)c1ccc(-c2ccc(Cl)cc2)o1	1.53 µM
COc1ccccc1NC(=O)c1cnc(SC)nc1	22.3 µM (inactive)
CCOC(=O)c1ccc(-c2ccc(C(=O)Nc3cccnc3)o2)cc1	0.84 µM
Cc1cccc2nc(-c3cccnc3)c(NCCC(C)C)n12	16.1 µM (inactive)
